# Reference: patent publication US10456407B2, “Combination therapy for treating cancer” (Epizyme, Inc., priority 2015, dated 2019)
# Test system: WSU-DLCL2 cells
# Assay: RT2 Glucocorticoid signaling PCR array, WSU-DLCL2 (WSU) cell line (Table 4c)
# Type: cell-based
structure (smiles),measurement,setting,value
CCN(c1cc(-c2ccc(CN3CCOCC3)cc2)cc(C(=O)NCc2c(C)cc(C)[nH]c2=O)c1C)C1CCOCC1 [Compound 44],"Ct Values, ACTB",gene ACTB,15.450
same,"ΔCT (B2M), ACTB",gene ACTB,−4.235
same,"Ct Values, ADARB1",gene ADARB1,25.386
same,"ΔCT (B2M), ADARB1",gene ADARB1,5.701
same,"ΔΔCT, ADARB1","gene ADARB1, compared to DMSO",−1.165
same,"Ct Values, AFF1",gene AFF1,27.925
same,"ΔCT (B2M), AFF1",gene AFF1,8.240
same,"ΔΔCT, AFF1","gene AFF1, compared to DMSO",−0.413
same,"Ct Values, AK2",gene AK2,21.365
same,"ΔCT (B2M), AK2",gene AK2,1.680
same,"ΔΔCT, AK2","gene AK2, compared to DMSO",0.486
same,"Ct Values, AMPD3",gene AMPD3,27.162
same,"ΔCT (B2M), AMPD3",gene AMPD3,7.477
same,"ΔΔCT, AMPD3","gene AMPD3, compared to DMSO",−1.540
same,"Ct Values, ANGPTL4",gene ANGPTL4,30.487
same,"ΔCT (B2M), ANGPTL4",gene ANGPTL4,10.802
same,"ΔΔCT, ANGPTL4","gene ANGPTL4, compared to DMSO",−1.192
same,"Ct Values, ANXA4",gene ANXA4,24.659
same,"ΔCT (B2M), ANXA4",gene ANXA4,4.974
same,"ΔΔCT, ANXA4","gene ANXA4, compared to DMSO",−3.312
same,"Ct Values, AQP1",gene AQP1,33.645
same,"ΔCT (B2M), AQP1",gene AQP1,13.960
same,"Ct Values, ARID68",gene ARID68,26.126
same,"ΔCT (B2M), ARID68",gene ARID68,6.441
same,"ΔΔCT, ARID68","gene ARID68, compared to DMSO",−0.353
same,"Ct Values, ASPH",gene ASPH,22.415
same,"ΔΔCT, ASPH","gene ASPH, compared to DMSO",−0.105
same,"Ct Values, ATF4",gene ATF4,20.470
same,"ΔCT (B2M), ATF4",gene ATF4,0.785
same,"ΔΔCT, ATF4","gene ATF4, compared to DMSO",0.361
same,"Ct Values, B2M",gene B2M (normaliser),19.685
same,"ΔCT (B2M), B2M",gene B2M (normaliser),0.000
same,"Ct Values, BCL6",gene BCL6,20.795
same,"ΔCT (B2M), BCL6",gene BCL6,1.110
same,"ΔΔCT, BCL6","gene BCL6, compared to DMSO",−0.394
same,"Ct Values, CEBPA",gene CEBPA,27.014
same,"ΔCT (B2M), CEBPA",gene CEBPA,7.329
same,"ΔΔCT, CEBPA","gene CEBPA, compared to DMSO",−1.659
same,"Ct Values, CEBPB",gene CEBPB,26.770
same,"ΔCT (B2M), CEBPB",gene CEBPB,7.085
same,"ΔΔCT, CEBPB","gene CEBPB, compared to DMSO",1.269
same,"Ct Values, CREB1",gene CREB1,23.413
same,"ΔCT (B2M), CREB1",gene CREB1,3.728
same,"ΔΔCT, CREB1","gene CREB1, compared to DMSO",0.008
same,"Ct Values, CREB3",gene CREB3,25.459
same,"ΔCT (B2M), CREB3",gene CREB3,5.774
same,"ΔΔCT, CREB3","gene CREB3, compared to DMSO",−0.085
same,"Ct Values, CREB3L4",gene CREB3L4,24.392
same,"ΔCT (B2M), CREB3L4",gene CREB3L4,4.707
same,"ΔΔCT, CREB3L4","gene CREB3L4, compared to DMSO",−0.915
same,"Ct Values, CYB561",gene CYB561,31.478
same,"ΔCT (B2M), CYB561",gene CYB561,11.793
same,"ΔΔCT, CYB561","gene CYB561, compared to DMSO",−5.631
same,"Ct Values, DDIT4",gene DDIT4,24.404
same,"ΔCT (B2M), DDIT4",gene DDIT4,4.719
same,"ΔΔCT, DDIT4","gene DDIT4, compared to DMSO",−0.060
same,"Ct Values, DUSP1",gene DUSP1,27.284
same,"ΔCT (B2M), DUSP1",gene DUSP1,7.599
same,"ΔΔCT, DUSP1","gene DUSP1, compared to DMSO",1.370
same,"Ct Values, EDN1",gene EDN1,26.349
same,"ΔCT (B2M), EDN1",gene EDN1,6.664
same,"Ct Values, EHD3",gene EHD3,24.270
same,"ΔCT (B2M), EHD3",gene EHD3,4.585
same,"ΔΔCT, EHD3","gene EHD3, compared to DMSO",−5.639
same,"Ct Values, ERRFI1",gene ERRFI1,32.771
same,"ΔCT (B2M), ERRFI1",gene ERRFI1,13.086
same,"Ct Values, FK8PS",gene FK8PS,23.267
same,"ΔCT (B2M), FK8PS",gene FK8PS,3.582
same,"ΔΔCT, FK8PS","gene FK8PS, compared to DMSO",0.159
same,"Ct Values, FOSL2",gene FOSL2,34.140
same,"ΔCT (B2M), FOSL2",gene FOSL2,14.455
same,"ΔΔCT, FOSL2","gene FOSL2, compared to DMSO",2.796
same,"Ct Values, GAPDH",gene GAPDH,17.275
same,"ΔCT (B2M), GAPDH",gene GAPDH,−2.410
same,"Ct Values, GDPD1",gene GDPD1,27.494
same,"ΔCT (B2M), GDPD1",gene GDPD1,7.809
same,"ΔΔCT, GDPD1","gene GDPD1, compared to DMSO",−1.112
same,"Ct Values, GHRHR",gene GHRHR,39.957
same,"ΔCT (B2M), GHRHR",gene GHRHR,20.272
same,"ΔΔCT, GHRHR","gene GHRHR, compared to DMSO",5.086
same,"Ct Values, GLUL",gene GLUL,28.395
same,"ΔCT (B2M), GLUL",gene GLUL,8.710
same,"Ct Values, GOT1",gene GOT1,23.827
same,"ΔCT (B2M), GOT1",gene GOT1,4.142
same,"ΔΔCT, GOT1","gene GOT1, compared to DMSO",0.708
same,"Ct Values, H6PD",gene H6PD,25.976
same,"ΔCT (B2M), H6PD",gene H6PD,6.291
same,"ΔΔCT, H6PD","gene H6PD, compared to DMSO",−0.619
same,"Ct Values, HNRPLL",gene HNRPLL,24.170
same,"ΔCT (B2M), HNRPLL",gene HNRPLL,4.485
same,"ΔΔCT, HNRPLL","gene HNRPLL, compared to DMSO",−0.037
same,"Ct Values, HPRT1",gene HPRT1,22.793
same,"ΔCT (B2M), HPRT1",gene HPRT1,3.108
same,"Ct Values, IL1RN",gene IL1RN,28.388
same,"ΔCT (B2M), IL1RN",gene IL1RN,8.703
same,"Ct Values, IL6R",gene IL6R,33.814
same,"ΔCT (B2M), IL6R",gene IL6R,14.129
same,"Ct Values, IL10",gene IL10,34.229
same,"ΔCT (B2M), IL10",gene IL10,14.544
same,"Ct Values, KLF9",gene KLF9,28.881
same,"ΔCT (B2M), KLF9",gene KLF9,9.196
same,"ΔΔCT, KLF9","gene KLF9, compared to DMSO",−2.195
same,"Ct Values, KLF13",gene KLF13,23.800
same,"ΔCT (B2M), KLF13",gene KLF13,4.115
same,"ΔΔCT, KLF13","gene KLF13, compared to DMSO",−0.974
same,"Ct Values, LOX",gene LOX,34.399
same,"ΔCT (B2M), LOX",gene LOX,14.714
same,"ΔΔCT, LOX","gene LOX, compared to DMSO",−0.102
